Here are results for two compounds from ChEMBL document CHEMBL1131690, “Synthesis and evaluation of anthranilic acid-based transthyretin amyloid fibril inhibitors” (Bioorg Med Chem Lett, 1999).

Assay [1] can be described thus: Binding parameter for complete inhibition of Wild type Transthyretin amyloid fibril formation at pH 4.4 with negative cooperativity by the compound at a concentration of (10.8).
Assay [2] in a line: Concentration completly inhibiting Wild type TTR amyloid fibril formation at pH 4.4. The assay is classed as functional.

Molecules are shown by their SMILES.

In assay [1], `O=C(O)c1ccccc1Nc1cccc(C(F)(F)F)c1` came in with a KD1 of 30.1 nM and a KD2 of 255 nM. Take `O=C(O)c1cccc(Nc2ccccc2C(=O)O)c1`: the Concentration in assay [2] came to 7.6 µM.
